In patent US9644011B2 (priority 2005, dated 2017):

Columns and labels:
muscle strength of mice = settings: mouse, in vivo
mouse sciatic nerve = settings: cited from earlier work

| Structure (SMILES) | time to decrease of 50% of the relative strength (muscle strength of mice) | concentration necessary for similar inhibitory effect on mouse sciatic nerve (mouse sciatic nerve) |
| --- | --- | --- |
| CCN(CC)CCOC(=O)c1ccc(N)cc1 [procaine] | ~10 min | – |
| CCN(CC)CC(=O)Nc1c(C)cccc1C [lidocaine] | – | Millimolar concentrations |
